# Laboratory results from US20100041892A1, “Therapeutic agent for diabetes” (priority 2005, published 2010).
row,melting point [°C],Structure (SMILES)
1,183 to 184,"COCCOc1ccc(/C=C/C(=O)NS(=O)(=O)c2ccc(F)cc2)c(Oc2ncc(C(F)(F)F)cc2Cl)c1 [Example 237, (2E)-3-[2-{[3-chloro-5-(trifluoromethyl)pyridin-2-yl]oxy}-4-(2-methoxyethoxy)phenyl]-N-[(4-fluorophenyl)sulfonyl]acrylamide]"
2,164 to 165,"COCCOc1ccc(/C=C/C(=O)NS(=O)(=O)c2ccccn2)c(Oc2ncc(C(F)(F)F)cc2Cl)c1 [Example 239, (2E)-3-[2-{[3-chloro-5-(trifluoromethyl)pyridin-2-yl]oxy}-4-(2-methoxyethoxy)phenyl]-N-(pyridin-2-ylsulfonyl)acrylamide]"
3,165 to 167,"COCCOc1ccc(/C=C/C(=O)NS(=O)(=O)c2cccnc2)c(Oc2ncc(C(F)(F)F)cc2Cl)c1 [Example 240, (2E)-3-[2-{[3-chloro-5-(trifluoromethyl)pyridin-2-yl]oxy}-4-(2-methoxyethoxy)phenyl]-N-(pyridin-3-ylsulfonyl)acrylamide]"
4,147 to 147.5,"COCCOc1ccc(/C=C/C(=O)NS(=O)(=O)c2cccc(C)c2)c(Oc2ncc(C(F)(F)F)cc2Cl)c1 [Example 241, (2E)-3-[2-{[3-chloro-5-(trifluoromethyl)pyridin-2-yl]oxy}-4-(2-methoxyethoxy)phenyl]-N-[(3-methylphenyl)sulfonyl]acrylamide]"
5,125.5 to 128,"COCCOc1ccc(/C=C/C(=O)NS(=O)(=O)C(F)(F)F)c(Oc2ncc(C(F)(F)F)cc2Cl)c1 [Example 243, (2E)-3-[2-{[3-chloro-5-(trifluoromethyl)pyridin-2-yl]oxy}-4-(2-methoxyethoxy)phenyl]N-[(trifluoromethyl)sulfonyl]acrylamide]"
6,159 to 159.5,"COCCOc1ccc(/C=C(\C)C(=O)NS(=O)(=O)CC(F)(F)F)c(Oc2ncc(C(F)(F)F)cc2Cl)c1 [Example 244, (2E)-3-[2-{[3-chloro-5-(trifluoromethyl)pyridin-2-yl]oxy}-4-(2-methoxyethoxy)phenyl]-2-methyl-N-[(2,2,2-trifluoroethyl)sulfonyl]acrylamide]"
7,146 to 147,"COCCOc1ccc(/C=C(\C)C(=O)NS(=O)(=O)C(F)(F)F)c(Oc2ncc(C(F)(F)F)cc2Cl)c1 [Example 245, (2E)-3-[2-{[3-chloro-5-(trifluoromethyl)pyridin-2-yl]oxy}-4-(2-methoxyethoxy)phenyl]-2-methyl-N-[(trifluoromethyl)sulfonyl]acrylamide]"
8,146 to 147.5,"COCCOc1ccc(/C=C/C(=O)NS(=O)(=O)CC(F)(F)F)c(Oc2ncc(C(F)(F)F)cc2Cl)c1 [Example 246, (2E)-3-[2-{[3-chloro-5-(trifluoromethyl)pyridin-2-yl]oxy}-4-(2-methoxyethoxy)phenyl]-N-[(2,2,2-trifluoroethyl)sulfonyl]acrylamide]"
9,103 to 105,"CCCCCS(=O)(=O)NC(=O)/C=C/c1ccc(OCCCOCCOC)cc1Oc1ncc(C(F)(F)F)cc1Cl [Example 254, (2E)-3-{2-{[3-chloro-5-(trifluoromethyl)pyridin-2-yl]oxy}-4-[3-(2-methoxyethoxy)propoxy]phenyl}-N-(pentylsulfonyl)acrylamide]"
10,124 to 125,"CCCCCS(=O)(=O)NC(=O)/C=C/c1ccc(OCCCOCC2CC2)cc1Oc1ncc(C(F)(F)F)cc1Cl [Example 259, (2E)-3-{2-{[3-chloro-5-(trifluoromethyl)pyridin-2-yl]oxy}-4-[3-(cyclopropylmethoxy)propoxy]phenyl}-N-(pentylsulfonyl)acrylamide]"
11,96.5 to 97.5,"CCCCCS(=O)(=O)NC(=O)CCc1ccc(OCCC2(C)OCCO2)cc1Oc1ncc(C(F)(F)F)cc1Cl [Example 425, 3-{2-{[3-chloro-5-(trifluoromethyl)pyridin-2-yl]oxy}-4-[2-(2-methyl-1,3-dioxolan-2-yl)ethoxy]phenyl}-N-(pentylsulfonyl)propanamide]"
12,153.2 to 153.8,"COCCOc1ccc(CCCOC(=O)NS(N)(=O)=O)c(Oc2ncc(Cl)cc2Cl)c1 [Example 426, 3-[2-[(3,5-dichloropyridin-2-yl)oxy]-4-(2-methoxyethoxy)phenyl]propyl (aminosulfonyl)carbamate]"
13,87.9 to 89,"COCCCNS(=O)(=O)NC(=O)OCCCc1ccc(OCCOC)cc1Oc1ncc(Cl)cc1Cl [Example 428, 3-[2-[(3,5-dichloropyridin-2-yl)oxy]-4-(2-methoxyethoxy)phenyl]propyl {[(3-methoxypropyl)amino]sulfonyl}carbamate]"
14,98 to 100,"COCCCNS(=O)(=O)NC(=O)OC/C=C/c1ccc(OCCOC)cc1Oc1ncc(C(F)(F)F)cc1Cl [Example 432, (2E)-3-[2-{[3-chloro-5-(trifluoromethyl)pyridin-2-yl]oxy}-4-(2-methoxyethoxy)phenyl]prop-2-en-1-yl {[(3-methoxypropyl)amino]sulfonyl}carbamate]"
15,154 to 156,"COCCOc1ccc(/C=C/COC(=O)NS(=O)(=O)NCCN2CCCC2)c(Oc2ncc(C(F)(F)F)cc2Cl)c1 [Example 434, (2E)-3-[2-{[3-chloro-5-(trifluoromethyl)pyridin-2-yl]oxy}-4-(2-methoxyethoxy)phenyl]prop-2-en-1-yl {[(2-pyrrolidin-1-ylethyl)amino]sulfonyl}carbamate]"
16,113 to 114,"COCCOc1ccc(/C=C/COC(=O)NS(=O)(=O)NCCc2ccccc2)c(Oc2ncc(C(F)(F)F)cc2Cl)c1 [Example 435, (2E)-3-[2-{[3-chloro-5-(trifluoromethyl)pyridin-2-yl]oxy}-4-(2-methoxyethoxy)phenyl]prop-2-en-1-yl {[(2-phenylethyl)amino]sulfonyl}carbamate]"
17,187 to 188,"CCCCCS(=O)(=O)NC(=O)/C=C/c1ccc(OCC(C)=O)cc1Oc1ncc(C(F)(F)F)cc1Cl [Example 452, (2E)-3-[2-{[3-chloro-5-(trifluoromethyl)pyridin-2-yl]oxy}-4-(2-oxopropoxy)phenyl]-N-(pentylsulfonyl)acrylamide]"
18,101 to 103,"CCCCCS(=O)(=O)NC(=O)/C=C/c1ccc(OCC(COC(C)C)OC(C)=O)cc1Oc1ncc(C(F)(F)F)cc1Cl (stereo not drawn) [Example 455, 2-(3-{[3-chloro-5-(trifluoromethyl)pyridin-2-yl]oxy}-4-{(1E)-3-oxo-3-[(pentylsulfonyl)amino]prop-1-en-1-yl}phenoxy)-1-(isopropoxymethyl)ethyl acetate]"
19,86 to 88,"CCCCCS(=O)(=O)NC(=O)/C=C/c1ccc(OCC(O)COC(C)C)cc1Oc1ncc(C(F)(F)F)cc1Cl (stereo not drawn) [Example 456, (2E)-3-[2-{[3-chloro-5-(trifluoromethyl)pyridin-2-yl]oxy}-4-(2-hydroxy-3-isopropoxypropoxy)phenyl]-N-(pentylsulfonyl)acrylamide]"
20,189 to 190,"CCCCCS(=O)(=O)NC(=O)/C=C/c1ccc(C)n1Cc1ccc(Cl)cc1Cl [Example 457, (2E)-3-[1-(2,4-dichlorobenzyl)-5-methyl-1H-pyrrol-2-yl]-N-(pentylsulfonyl)acrylamide]"
21,170 to 171,"CCCCCS(=O)(=O)NC(=O)/C=C/c1c(C)cc(C)n1Cc1ccc(Cl)cc1Cl [Example 458, (2E)-3-[1-{2,4-dichlorobenzyl)-3,5-dimethyl-1H-pyrrol-2-yl]-N-(pentylsulfonyl)acrylamide]"
22,159.8 to 160.2,"CCCCCS(=O)(=O)NC(=O)/C=C/c1ccc(OCCOC)cc1Oc1ncc(Br)cc1C [Example 460, (2E)-3-[2-[(5-bromo-3-methylpyridin-2-yl)oxy]-4-(2-methoxyethoxy)phenyl]-N-(pentylsulfonyl)acrylamide]"
23,187.9 to 188.2,"CCCCCS(=O)(=O)NC(=O)/C=C/c1ccc(OCCOC)cc1Oc1ncc(NC(C)=O)cc1C [Example 463, (2E)-3-[2-{[5-(acetylamino)-3-methylpyridin-2-yl]oxy}-4-(2-methoxyethoxy)phenyl]-N-(pentylsulfonyl)acrylamide]"
24,94.6 to 94.8,"CCOC(=O)c1cnc(Oc2cc(OCCOC)ccc2CCCOC(=O)NCC2CC2)c(Cl)c1 [Example 465, ethyl 5-chloro-6-[2-[3-({[(cyclopropylmethyl)amino]carbonyl}oxy)propyl]-5-(2-methoxyethoxy)phenoxy]nicotinate]"
25,132.8 to 133.5,"CCCCCS(=O)(=O)NC(=O)/C=C/c1ccc(OCCOC)cc1Oc1ncc(-c2ccccc2)cc1C [Example 467, (2E)-3-{4-(2-methoxyethoxy)-2-[(3-methyl-5-phenylpyridin-2-yl)oxy]phenyl}-N-(pentylsulfonyl)acrylamide]"
26,126 to 128,"C/C(=C\c1ccc(OC(C)C)cc1Oc1ncc(C(F)(F)F)cc1Cl)C(=O)NS(=O)(=O)NCc1cnc(C)cn1 [Example 470, (2E)-3-(2-{[3-chloro-5-(trifluoromethyl)pyridin-2-yl]oxy}-4-isopropoxyphenyl)-2-methyl-N-({[(5-methylpyrazin-2-yl)methyl]amino}sulfonyl)acrylamide]"
27,121 to 123,"C/C(=C\c1ccc(OC(C)C)cc1Oc1ncc(C(F)(F)F)cc1Cl)C(=O)NS(=O)(=O)NCCc1ccccn1 [Example 471, (2E)-3-(2-{[3-chloro-5-(trifluoromethyl)pyridin-2-yl]oxy}-4-isopropoxyphenyl)-2-methyl-N-{[(2-pyridin-2-ylethyl)amino]sulfonyl}acrylamide]"
28,67.4 to 68,"COCCCOc1ccc(CCCOC(=O)NS(=O)(=O)NCCOC(C)C)c(Oc2ncc(C(F)(F)F)cc2Cl)c1 [Example 474, 3-[2-{[3-chloro-5-(trifluoromethyl)pyridin-2-yl]oxy}-4-(3-methoxypropoxy)phenyl]propyl {[(2-isopropoxyethyl)amino]sulfonyl}carbamate]"
29,111.1 to 113,"C=CCCOc1ccc(CCCOC(=O)NS(=O)(=O)NCCOC(C)C)c(Oc2ncc(C(F)(F)F)cc2Cl)c1 [Example 475, 3-(4-(but-3-en-1-yloxy)-2-{[3-chloro-5-(trifluoromethyl)pyridin-2-yl]oxy}phenyl)propyl {[(2-isopropoxyethyl)amino]sulfonyl}carbamate]"

row,Structure (SMILES),melting point [°C]
1,"CCCCOc1ccc(CCCOC(=O)NS(=O)(=O)NCCOC(C)C)c(Oc2ncc(C(F)(F)F)cc2Cl)c1 [Example 473, 3-(4-butoxy-2-{[3-chloro-5-(trifluoromethyl)pyridin-2-yl]oxy}phenyl)propyl {[(2-isopropoxyethyl)amino]sulfonyl}carbamate]",91.4 to 91.6
